pEC50: −log10 of the molar value. Read-outs that look alike come from different tables or passages of the source.
What was measured:
BT-549 = experiment: CellTiter-Glo Viability Assay, breast cancer; assay type: cell-based; settings: Homo sapiens, BT-549, 96 h
CAMA1 = experiment: CellTiter-Glo Viability Assay, breast cancer; assay type: cell-based; settings: Homo sapiens, CAMA-1, 96 h
DU4475 = experiment: CellTiter-Glo Viability Assay, breast cancer; assay type: cell-based; settings: Homo sapiens, DU-4475, 96 h
HCC1599 = experiment: CellTiter-Glo Viability Assay, breast cancer; assay type: cell-based; settings: Homo sapiens, HCC1599, 96 h
MCF7 = experiment: CellTiter-Glo Viability Assay, breast cancer; assay type: cell-based; settings: Homo sapiens, MCF7, 96 h
MDA-MB-231-Luc = experiment: CellTiter-Glo Viability Assay, breast cancer; assay type: cell-based; settings: Homo sapiens, 96 h
T47D = experiment: CellTiter-Glo Viability Assay, breast cancer; assay type: cell-based; settings: Homo sapiens, 96 h
ZR-75-1 = experiment: CellTiter-Glo Viability Assay, breast cancer; assay type: cell-based; settings: Homo sapiens, ZR-75-1, 96 h
all 50 cell lines = experiment: CellTiter-Glo Viability Assay, average across all cell lines; assay type: cell-based; settings: Homo sapiens, read-out: average EC50 for inhibition of cancer cell proliferation
How it was run: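 4-day proliferation, 37° C/5% CO2; 300-3,000 cells/well; compound in duplicate vs DMSO controls. Panel: breast, colorectal, heme/lymphoid, liver, lung, ovarian, pancreatic, prostate lines. Read-out: CellTiter-Glo ATP luminescence, EC50 from dose-response.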

[1] = system: colorectal cancer (6 cell lines); experiment: CellTiter-Glo Viability Assay, colorectal cancer; assay type: cell-based; settings: Homo sapiens
[2] = system: haematopoietic & lymphoid tumors (13 cell lines); experiment: CellTiter-Glo Viability Assay, haematopoietic & lymphoid tumors; assay type: cell-based; settings: Homo sapiens
[3] = system: liver cancer (3 cell lines); experiment: CellTiter-Glo Viability Assay, liver cancer; assay type: cell-based; settings: Homo sapiens
[4] = system: lung cancer (4 cell lines); experiment: CellTiter-Glo Viability Assay, lung cancer; assay type: cell-based; settings: Homo sapiens
[5] = system: ovarian cancer (4 cell lines); experiment: CellTiter-Glo Viability Assay, ovarian cancer; assay type: cell-based; settings: Homo sapiens
[6] = system: pancreatic cancer (8 cell lines); experiment: CellTiter-Glo Viability Assay, pancreatic cancer; assay type: cell-based; settings: Homo sapiens
[7] = system: prostate cancer (5 cell lines); experiment: CellTiter-Glo Viability Assay, prostate cancer; assay type: cell-based; settings: Homo sapiens
CLK3 = CLK3 (Homo sapiens, UniProt P49761); experiment: CLK3 kinase activity assay (Z-lyte, Ser/Thr 18 peptide)
Chain of CLK3 (P49761 whole entry): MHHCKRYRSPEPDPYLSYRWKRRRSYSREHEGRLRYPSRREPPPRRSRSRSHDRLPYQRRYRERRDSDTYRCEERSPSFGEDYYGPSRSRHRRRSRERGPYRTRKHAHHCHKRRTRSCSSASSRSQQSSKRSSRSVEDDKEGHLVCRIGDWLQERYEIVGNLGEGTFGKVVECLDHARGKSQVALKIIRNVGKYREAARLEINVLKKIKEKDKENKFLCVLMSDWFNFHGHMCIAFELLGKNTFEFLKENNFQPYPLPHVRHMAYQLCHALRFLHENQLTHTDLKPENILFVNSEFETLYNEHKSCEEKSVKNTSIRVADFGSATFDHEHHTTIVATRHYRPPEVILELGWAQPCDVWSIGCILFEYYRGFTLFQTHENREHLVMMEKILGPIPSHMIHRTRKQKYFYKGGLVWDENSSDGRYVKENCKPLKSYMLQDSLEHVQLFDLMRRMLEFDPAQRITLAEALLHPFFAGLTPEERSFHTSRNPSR

Q: What does the source list for CN1CCN(C(=O)C(C)(C)c2ccc(C(=O)Nc3cn4cc(-c5ccncc5)ccc4n3)cc2)CC1 [Compound 27]?
A: pEC50 (BT-549): 5.44; pEC50 (CAMA1): 5.37; pEC50 (DU4475): 5.70; pEC50 (HCC1599): 5.09; pEC50 (MCF7): 5.40; pEC50 (MDA-MB-231-Luc): 5.44; pEC50 (T47D): 5.39; pEC50 (ZR-75-1): 5.41; pEC50 (all 50 cell lines): 5.55; EC50 ([1]; DLD-1, read-out: Colorectal cancer, EC50 (μM) DLD-1): 1.65 µM; EC50 ([1]; HCT-116, read-out: Colorectal cancer, EC50 (μM) HCT116): 1.08 µM; EC50 ([1]; HT-29, read-out: Colorectal cancer, EC50 (μM) HT29): 2.38 µM; EC50 ([1]; SW48, read-out: Colorectal cancer, EC50 (μM) SW48): 0.675 µM; EC50 ([1]; SW480, read-out: Colorectal cancer, EC50 (μM) SW480): 1.08 µM; EC50 ([1]; SW-620, read-out: Colorectal cancer, EC50 (μM) SW620): 0.97 µM; EC50 ([2]; DND41, read-out: Haematopoietic & Lymphoid tumors, EC50 (μM) DND-41): 1.78 µM; EC50 ([2]; HL-60, read-out: Haematopoietic & Lymphoid tumors, EC50 (μM) HL-60): 4.98 µM; EC50 ([2]; JM1, read-out: Haematopoietic & Lymphoid tumors, EC50 (μM) JM1): 0.982 µM; EC50 ([2]; JeKo-1, read-out: Haematopoietic & Lymphoid tumors, EC50 (μM) JeKo-1): 1.22 µM; EC50 ([2]; Jurkat, read-out: Haematopoietic & Lymphoid tumors, EC50 (μM) JURKAT, Clone E6-1): 3.85 µM; EC50 ([2]; Kasumi 1, read-out: Haematopoietic & Lymphoid tumors, EC50 (μM) KASUMI-1): 2.1 µM; EC50 ([2]; MOLT-4, read-out: Haematopoietic & Lymphoid tumors, EC50 (μM) MOLT-4): 2.39 µM; EC50 ([2]; MV4-11, read-out: Haematopoietic & Lymphoid tumors, EC50 (μM) MV-4-11): 0.275 µM; EC50 ([2]; Rec1, read-out: Haematopoietic & Lymphoid tumors, EC50 (μM) REC-1): 1 µM; EC50 ([2]; SU-DHL-4, read-out: Haematopoietic & Lymphoid tumors, EC50 (μM) SUDHL4): 2.54 µM; EC50 ([2]; TF-1, read-out: Haematopoietic & Lymphoid tumors, EC50 (μM) TF-1): 3.41 µM; EC50 ([2]; Toledo, read-out: Haematopoietic & Lymphoid tumors, EC50 (μM) TOLEDO): 1.1 µM; EC50 ([2]; read-out: Haematopoietic & Lymphoid tumors, EC50 (μM) Loucy): 1.49 µM; pEC50 ([3]; HepG2, read-out: Liver cancer, EC50 HEPG2): 5.48; pEC50 ([3]; PLC-PRF-5, read-out: Liver cancer, EC50 PLC/PRF/5): 5.40; pEC50 ([3]; SNU-398, read-out: Liver cancer, EC50 SNU398): 6.04; EC50 ([4]; A-427, read-out: Lung cancer, EC50 (μM) A427): 3.08 µM; EC50 ([4]; HCC78, read-out: Lung cancer, EC50 (μM) HCC-78): 3.72 µM; EC50 ([4]; NCI-H460, read-out: Lung cancer, EC50 (μM) NCI-H460): 3.54 µM; EC50 ([4]; NCI-H522, read-out: Lung cancer, EC50 (μM) NCI-H522): 1.99 µM; EC50 ([5]; OV-90, read-out: Ovarian cancer, EC50 (μM) OV-90): 3.87 µM; EC50 ([5]; OVCAR-3, read-out: Ovarian cancer, EC50 (μM) OVCAR-3): 1.31 µM; EC50 ([5]; PA-1, read-out: Ovarian cancer, EC50 (μM) PA1): 1.58 µM; EC50 ([5]; TOV112D, read-out: Ovarian cancer, EC50 (μM) TOV-112D): 2.32 µM; pEC50 ([6]; BXPC-3, read-out: Pancreatic cancer, EC50 BxPC3): 5.34; pEC50 ([6]; CAPAN-1, read-out: Pancreatic cancer, EC50 Capan1): 5.46; pEC50 ([6]; Capan-2, read-out: Pancreatic cancer, EC50 Capan2): 5.42; pEC50 ([6]; MIA PaCa-2, read-out: Pancreatic cancer, EC50 MIA PaCa-2): 5.84; pEC50 ([6]; PANC-1, read-out: Pancreatic cancer, EC50 PANC-1): 5.33; pEC50 ([6]; Panc 05.04, read-out: Pancreatic cancer, EC50 PANC 05.04): 5.44; pEC50 ([6]; read-out: Pancreatic cancer, EC50 UPAFII): 5.73; pEC50 ([7]; 22Rv1, read-out: Prostate cancer EC50 22Rv1): 5.54; pEC50 ([7]; DU-145, read-out: Prostate cancer EC50 Du-145): 5.47; pEC50 ([7]; LNCaP-Clone-FGC, read-out: Prostate cancer EC50 LNCap clone FGC): 5.38; pEC50 ([7]; PC-3, read-out: Prostate cancer EC50 PC3): 5.59; pEC50 ([7]; VCaP, read-out: Prostate cancer EC50 VCaP (Sigma)): 5.13; pEC50 (CLK3): 7.46

Source: patent US20220062240A1, “METHODS OF TREATING CANCER USING A CLK INHIBITOR” (BioSplice Therapeutics, Inc., priority 2018, published 2022)
